In patent US20260234147A1 (priority 2023, published 2026):
Where two headings read alike, the source gives them in different places.

Experiments:
α2A adrenergic receptor = biological target: T1, α2A adrenergic receptor (Homo sapiens, UniProt P08913); test: Radioligand binding assay (Eurofins Cerep), [3H]RX 821002 displacement
T1 construct: Eurofins Cerep (contract screening)
T1 sequence (P08913 1-465): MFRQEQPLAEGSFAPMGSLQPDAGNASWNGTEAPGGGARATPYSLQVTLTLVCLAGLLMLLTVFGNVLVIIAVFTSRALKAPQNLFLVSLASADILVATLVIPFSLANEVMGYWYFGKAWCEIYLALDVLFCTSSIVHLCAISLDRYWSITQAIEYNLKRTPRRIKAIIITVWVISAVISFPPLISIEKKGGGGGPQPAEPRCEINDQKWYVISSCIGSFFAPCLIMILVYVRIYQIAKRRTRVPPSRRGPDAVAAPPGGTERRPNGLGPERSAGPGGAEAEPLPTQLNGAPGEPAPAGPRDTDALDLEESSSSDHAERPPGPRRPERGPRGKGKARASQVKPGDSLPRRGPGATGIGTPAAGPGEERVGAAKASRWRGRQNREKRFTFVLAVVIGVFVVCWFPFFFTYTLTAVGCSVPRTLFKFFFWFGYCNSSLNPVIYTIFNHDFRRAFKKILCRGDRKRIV

[1] = Metabolic stability in rat liver microsomes; type: in vitro ADME; details: for RLM stability: rat liver microsomes 1 mg/ml, substrate 1 μM, NADPH, 37° C.
Description: In vitro metabolic stability of each compound was determined using rat liver microsomes in triplicate. Verapamil was used as a positive control to check the activity of the microsomes. The incubation mixtures consisted of rat liver microsomes (1 mg microsomal protein/ml), substrate (1 μM), and reduced NADPH (1 mM) in a total volume of 0.4 ml potassium phosphate buffer (50 mM, pH 7.4). Reactions were initiated with the addition of NADPH and kept in an incubator shaker at 37° C. Aliquots of 25 μl were withdrawn at 0, 5, 10, 15, 30, and 60 min and mixed with 125 μl of acetonitrile with formic acid (0.1% v/v) containing phenacetin (50 ng/ml; internal standard) for the termination of the reaction. The samples were then vortex mixed and filtered through a […] 96-well membrane filtration plate under centrifugation at speed of 2000×g for 5 min at 4° C. The filtrates were subjected to UPLC-mass spectrometry (MS/MS) analysis.
The intrinsic clearance of the compounds was calculated using a half-life employing the ‘substrate depletion’ approach. The apparent half-life was calculated from the pseudo-first-order rate constants obtained by linear regression of log (concentration) and time plots. The in vitro intrinsic clearance of IFN was estimated using the formula: […]
Where k is the slope of the line obtained by plotting the natural logarithmic of the percentage of parent remaining versus time and V is the volume of incubation.
The in vitro intrinsic clearance was scaled to whole-organ (hepatic) in vivo intrinsic CL (CLint,H) using the scaling factors available in the literature using equation (Mahmood I. Application of allometric principles for the prediction of pharmacokinetics in human and veterinary drug development. Advanced drug delivery reviews, 2007, 59(11), 1177-1192)
MPPGL represents the microsomal protein per gram of Sprague Dawley rat liver (45 mg/g) and liver weight per kg body weight was 40 g/kg.

hMOR [2] = biological target: T2, hMOR (Homo sapiens, UniProt P35372); test: cell-based; parameters: expressed in transfected cells; details: for Emax: CHO
T2 sequence (P35372 whole entry): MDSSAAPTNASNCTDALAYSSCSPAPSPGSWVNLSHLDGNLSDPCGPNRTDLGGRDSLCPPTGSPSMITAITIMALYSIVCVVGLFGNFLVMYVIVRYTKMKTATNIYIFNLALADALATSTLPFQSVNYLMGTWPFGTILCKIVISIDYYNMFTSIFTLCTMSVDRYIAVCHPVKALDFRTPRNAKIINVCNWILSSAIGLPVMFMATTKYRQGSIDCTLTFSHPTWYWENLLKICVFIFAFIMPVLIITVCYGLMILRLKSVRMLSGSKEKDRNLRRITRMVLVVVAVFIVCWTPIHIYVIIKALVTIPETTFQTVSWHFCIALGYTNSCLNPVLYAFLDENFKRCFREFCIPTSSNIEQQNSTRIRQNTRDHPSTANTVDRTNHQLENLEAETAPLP

hMOR [3] = biological target: T2, hMOR; test: Radioligand binding assay (Eurofins Cerep), [3H]DAMGO displacement
hKOR = hKOR (Homo sapiens, UniProt P41145); test: Radioligand binding assay (Eurofins Cerep), [3H]U69,593 displacement; details: read-out: KOR Ki ± SEM
hKOR, sequence (P41145 whole entry): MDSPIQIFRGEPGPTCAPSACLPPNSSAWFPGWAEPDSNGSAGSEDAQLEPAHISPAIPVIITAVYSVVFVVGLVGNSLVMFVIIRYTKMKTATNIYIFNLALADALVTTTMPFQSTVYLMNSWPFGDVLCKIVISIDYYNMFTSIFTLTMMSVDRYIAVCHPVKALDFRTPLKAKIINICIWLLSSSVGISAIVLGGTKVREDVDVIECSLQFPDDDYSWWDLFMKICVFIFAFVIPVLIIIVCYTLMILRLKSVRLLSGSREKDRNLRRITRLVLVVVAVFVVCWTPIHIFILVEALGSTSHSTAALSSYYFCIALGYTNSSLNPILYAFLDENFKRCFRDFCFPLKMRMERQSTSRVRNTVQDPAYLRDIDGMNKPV

hMOR [4] = biological target: T2, hMOR; test: Cyclic adenosine 3′,5′-monophosphate (cAMP) assay in hMOR-CHO cells; type: cell-based; details: N=1, control agonist DAMGO
hDOR = hDOR (Homo sapiens, UniProt P41143); test: Radioligand binding assay (Eurofins Cerep), [3H]DADLE displacement
hDOR, sequence (P41143 whole entry): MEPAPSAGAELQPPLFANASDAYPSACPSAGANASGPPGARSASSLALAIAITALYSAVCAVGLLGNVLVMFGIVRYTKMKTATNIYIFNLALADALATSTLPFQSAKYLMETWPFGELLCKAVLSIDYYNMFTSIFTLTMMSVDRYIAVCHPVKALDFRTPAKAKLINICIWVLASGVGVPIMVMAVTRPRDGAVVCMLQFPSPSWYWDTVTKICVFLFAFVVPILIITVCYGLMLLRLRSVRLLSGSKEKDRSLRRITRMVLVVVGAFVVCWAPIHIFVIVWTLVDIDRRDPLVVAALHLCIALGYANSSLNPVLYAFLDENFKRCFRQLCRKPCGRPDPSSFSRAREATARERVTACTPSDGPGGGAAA

α2C adrenergic receptor = biological target: T3, α2C adrenergic receptor (Homo sapiens, UniProt P18825); test: Radioligand binding assay (Eurofins Cerep), [3H]RX 821002 displacement; details: Table A1, data summary #1; read-out: Alpha2C Ki ± SEM
T3 construct: Eurofins Cerep (contract screening)
T3 sequence (P18825 1-462): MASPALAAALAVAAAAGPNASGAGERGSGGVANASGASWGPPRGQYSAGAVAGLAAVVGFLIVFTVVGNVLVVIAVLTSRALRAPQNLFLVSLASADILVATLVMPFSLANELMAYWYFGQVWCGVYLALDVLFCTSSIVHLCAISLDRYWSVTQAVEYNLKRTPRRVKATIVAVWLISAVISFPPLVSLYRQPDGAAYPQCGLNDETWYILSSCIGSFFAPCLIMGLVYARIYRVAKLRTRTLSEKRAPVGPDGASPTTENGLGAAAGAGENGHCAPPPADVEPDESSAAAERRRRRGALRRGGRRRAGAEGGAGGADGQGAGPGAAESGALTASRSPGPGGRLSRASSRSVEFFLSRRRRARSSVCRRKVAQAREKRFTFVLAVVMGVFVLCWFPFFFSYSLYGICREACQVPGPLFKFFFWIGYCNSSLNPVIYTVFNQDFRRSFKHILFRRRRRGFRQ

[5] = Alpha2A Ki ± SEM (nM), Table A4, data summary #2
[6] = Table A4, data summary #2, read-out: MOR Ki ± SEM
[7] = DOR Ki ± SEM (nM), Table A1, data summary #1
[8] = DOR Ki ± SEM (nM), Table A4, data summary #2

Compound | Ki (α2A adrenergic receptor; [5]) | RLM stability [1] | Ki (hMOR [3]; [6]) | Ki (hKOR; Table A1, data summary #1) | Ki (hKOR; Table A4, data summary #2) | functional activity in cAMP assay (hMOR [4]) | Ki (hDOR; [7]) | Ki (hDOR; [8]) | Ki (hMOR [3]; read-out: Ki at hMOR) | also measured
CC[C@@H]1CN2CCc3c([nH]c4cccc(OC)c34)[C@@H]2C[C@@H]1/C(=C\OC)C(=O)N(C)C [SUSM-501, (E)-2-((2S,3S,12bS)-3-ethyl-8-methoxy-1,2,3,4,6,7,12,12b-octahydroindolo[2,3-a]quinolizin-2-yl)-3-methoxy-N,N-dimethylacrylamide] | 1810 ± 319 nM | 6 min | 0.429 ± 0.0757 µM | 3.07 ± 0.569 µM | 3.07 ± 0.569 µM | partial agonist activity | 6490 ± 3030 nM | 6490 ± 3030 nM | – | Ki (α2A adrenergic receptor; Alpha2A Ki ± SEM (nM), Table A1, data summary #1): 1810 ± 319 nM; Whole liver clearance, CL int, H ([1]; in vitro intrinsic clearance in RLM scaled to whole organ (rat)): 128.8 mL/min/kg; functional character at MOR (hMOR [2]): partial antagonist; Emax (hMOR [2]; read-out: MOR Emax ± SEM (% DAMGO), Table A1, data summary #1): -4.05 ± 4.03%; Emax (hMOR [2]; read-out: Emax, functional activity at MOR): -4.05%; Ki (hMOR [3]; Table A1, data summary #1, read-out: MOR Ki ± SEM): 0.429 ± 0.0757 µM; functional activity in cAMP assay (hMOR [4]; listed as SUSM 501): partial agonist; Ki (α2C adrenergic receptor): 0.42 ± 0.113 µM
CC[C@@H]1CN2CCc3c([nH]c4cccc(OC)c34)[C@@H]2C[C@@H]1/C(=C\OC)C(=O)N(C)C1CCCCC1 [SUSM-523, (E)-N-cyclohexyl-2-((2S,3S,12bS)-3-ethyl-8-methoxy-1,2,3,4,6,7,12,12b-octahydroindolo[2,3-a]quinolizin-2-yl)-3-methoxy-N-methylacrylamide] | 187 ± 29 nM | <5 min | 0.049 ± 0.014 µM | 2.64 ± 0.685 µM | 1.95 ± 0.611 µM | antagonists | 6490 ± 962 nM | 8290 ± 1020 nM | 0.0819 µM | functional activity in cAMP assay (hMOR [4]; listed as SUSM 523): antagonist
CC[C@@H]1CN2CC[C@@]3(O)C(=Nc4cccc(OC)c43)[C@@H]2C[C@@H]1/C(=C\OC)C(=O)N(C)C [SUSM-524, (E)-2-((2S,3S,7aS,12bS)-3-ethyl-7a-hydroxy-8-methoxy-1,2,3,4,6,7,7a,12b-octahydroindolo[2,3-a]quinolizin-2-yl)-3-methoxy-N,N-dimethylacrylamide] | – | <5 min | 0.09 ± 0.014 µM | 9.15 ± 1.1 µM | 9.15 ± 1.1 µM | agonist activity | – | – | 0.11 µM | Ki (α2A adrenergic receptor; Table A4, data summary #2, read-out: Alpha2A Ki ± SEM): > 10000 nM; potency at MOR relative to SUSM-501 (hMOR [3]): 4 fold; functional activity in cAMP assay (hMOR [4]; listed as SUSM 524): agonist; Ki (hDOR; Table A4, data summary #2, read-out: DOR Ki ± SEM): 802 ± 212 nM
